# Measurements taken from the kinase profiling compilation of Christmann-Franck et al. (2016).
# Columns and labels:
# Assay in all cases: radiometric filter-binding kinase assay, Kinase HotSpot
# Conditions in all cases: compound 0.5 µM; ATP 10 µM
# ROS1 (human) = ROS1 (human) (UniProt P08922)
# HIPK1 (human) = HIPK1 (human) (UniProt Q86Z02)
# PAK6 (human) = PAK6 (human) (UniProt Q9NQU5)
# YES1 (human) = YES1 (human) (UniProt P07947)
# BRSK2 (human) = BRSK2 (human) (UniProt Q8IWQ3)
# EPHB4 (human) = EPHB4 (human) (UniProt P54760)
# FGFR4 (human) = FGFR4 (human) (UniProt P22455)
# PLK1 (human) = PLK1 (human) (UniProt P53350)
# ERBB4 (human) = ERBB4 (human) (UniProt Q15303)
# DDR2 (human) = DDR2 (human) (UniProt Q16832)
# MAP3K8 (human) = MAP3K8 (human) (UniProt P41279)
# PHKG2 (human) = PHKG2 (human) (UniProt P15735)
# PRKCE (human) = PRKCE (human) (UniProt Q02156)
# CDK6 CCND1 (human) = CDK6 CCND1 (human) (UniProt Q00534+P24385)
# DSTYK (human) = DSTYK (human) (UniProt Q6XUX3)
# PNCK (human) = PNCK (human) (UniProt Q6P2M8)
# NTRK3 (human) = NTRK3 (human) (UniProt Q16288)
# PAK3 (human) = PAK3 (human) (UniProt O75914)
# MAPK1 (human) = MAPK1 (human) (UniProt P28482)
# MLTK (human) = MLTK (human) (UniProt Q9NYL2)
# MERTK (human) = MERTK (human) (UniProt Q12866)
# NLK (human) = NLK (human) (UniProt Q9UBE8)
# CSNK1D (human) = CSNK1D (human) (UniProt P48730)
# CSNK1E (human) = CSNK1E (human) (UniProt P49674)
# STK11 (human) = STK11 (human) (UniProt Q15831)
# FGFR3 (human) = FGFR3 (human) (UniProt P22607)
# MST4 (human) = MST4 (human) (UniProt Q9P289)
# PRKCD (human) = PRKCD (human) (UniProt Q05655)
# HIPK3 (human) = HIPK3 (human) (UniProt Q9H422)
# SYK (human) = SYK (human) (UniProt P43405)
# EPHA1 (human) = EPHA1 (human) (UniProt P21709)
# CAMK1G (human) = CAMK1G (human) (UniProt Q96NX5)
# CSNK1G1 (human) = CSNK1G1 (human) (UniProt Q9HCP0)
# NEK3 (human) = NEK3 (human) (UniProt P51956)
# JAK2 JH1 JH2 (human) = JAK2 JH1 JH2 (human) (UniProt O60674)
# KIT (human) = KIT (human) (UniProt P10721)
# TAOK2 (human) = TAOK2 (human) (UniProt Q9UL54)
# CSNK2A1 (human) = CSNK2A1 (human) (UniProt P68400)
# NEK11 (human) = NEK11 (human) (UniProt Q8NG66)
# DYRK2 (human) = DYRK2 (human) (UniProt Q92630)
# CLK3 (human) = CLK3 (human) (UniProt P49761)
# MAPKAPK2 (human) = MAPKAPK2 (human) (UniProt P49137)
# Chain of YES1 (human) (P07947 whole entry, looked up): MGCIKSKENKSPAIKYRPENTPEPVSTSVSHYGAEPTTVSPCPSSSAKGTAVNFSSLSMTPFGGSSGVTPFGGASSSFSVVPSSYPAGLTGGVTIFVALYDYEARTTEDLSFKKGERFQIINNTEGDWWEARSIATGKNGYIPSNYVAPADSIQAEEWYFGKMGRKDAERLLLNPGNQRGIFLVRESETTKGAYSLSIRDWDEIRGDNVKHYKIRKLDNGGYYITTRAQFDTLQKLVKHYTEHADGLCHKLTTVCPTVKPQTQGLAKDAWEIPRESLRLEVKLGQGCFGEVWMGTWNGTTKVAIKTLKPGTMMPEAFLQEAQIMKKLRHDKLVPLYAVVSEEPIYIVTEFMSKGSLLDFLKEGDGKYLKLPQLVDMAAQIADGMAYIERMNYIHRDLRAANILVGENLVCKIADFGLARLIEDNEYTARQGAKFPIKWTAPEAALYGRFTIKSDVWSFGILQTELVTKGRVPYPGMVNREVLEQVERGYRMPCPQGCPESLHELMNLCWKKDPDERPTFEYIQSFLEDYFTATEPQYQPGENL
# Chain of NLK (human) (Q9UBE8 whole entry, looked up): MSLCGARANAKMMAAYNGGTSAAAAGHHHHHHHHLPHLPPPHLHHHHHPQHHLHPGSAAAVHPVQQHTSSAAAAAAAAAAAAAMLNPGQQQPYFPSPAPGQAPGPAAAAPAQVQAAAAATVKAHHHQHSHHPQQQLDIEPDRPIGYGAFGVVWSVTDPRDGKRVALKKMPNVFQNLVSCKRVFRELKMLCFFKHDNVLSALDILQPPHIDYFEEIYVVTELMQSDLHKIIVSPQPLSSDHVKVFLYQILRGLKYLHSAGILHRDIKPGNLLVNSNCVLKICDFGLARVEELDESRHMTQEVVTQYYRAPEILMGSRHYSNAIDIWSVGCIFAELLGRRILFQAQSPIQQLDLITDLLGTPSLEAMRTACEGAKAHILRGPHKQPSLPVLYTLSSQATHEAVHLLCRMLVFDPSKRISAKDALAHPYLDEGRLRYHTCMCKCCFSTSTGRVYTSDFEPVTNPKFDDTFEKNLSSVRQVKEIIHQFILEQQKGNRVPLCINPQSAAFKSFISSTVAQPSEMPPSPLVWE
# Chain of CSNK1E (human) (P49674 whole entry, looked up): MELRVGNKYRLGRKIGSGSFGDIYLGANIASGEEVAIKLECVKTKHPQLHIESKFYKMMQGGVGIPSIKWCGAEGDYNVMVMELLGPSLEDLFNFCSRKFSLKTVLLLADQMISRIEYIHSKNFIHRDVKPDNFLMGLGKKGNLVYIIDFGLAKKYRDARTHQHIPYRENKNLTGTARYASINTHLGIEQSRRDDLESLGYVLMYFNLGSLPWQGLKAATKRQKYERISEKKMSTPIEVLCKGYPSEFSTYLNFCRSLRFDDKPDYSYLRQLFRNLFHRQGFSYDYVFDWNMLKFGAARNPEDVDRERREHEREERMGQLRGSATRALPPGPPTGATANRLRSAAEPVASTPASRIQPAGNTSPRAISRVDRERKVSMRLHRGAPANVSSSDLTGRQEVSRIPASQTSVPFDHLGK
# Chain of CAMK1G (human) (Q96NX5 whole entry, looked up): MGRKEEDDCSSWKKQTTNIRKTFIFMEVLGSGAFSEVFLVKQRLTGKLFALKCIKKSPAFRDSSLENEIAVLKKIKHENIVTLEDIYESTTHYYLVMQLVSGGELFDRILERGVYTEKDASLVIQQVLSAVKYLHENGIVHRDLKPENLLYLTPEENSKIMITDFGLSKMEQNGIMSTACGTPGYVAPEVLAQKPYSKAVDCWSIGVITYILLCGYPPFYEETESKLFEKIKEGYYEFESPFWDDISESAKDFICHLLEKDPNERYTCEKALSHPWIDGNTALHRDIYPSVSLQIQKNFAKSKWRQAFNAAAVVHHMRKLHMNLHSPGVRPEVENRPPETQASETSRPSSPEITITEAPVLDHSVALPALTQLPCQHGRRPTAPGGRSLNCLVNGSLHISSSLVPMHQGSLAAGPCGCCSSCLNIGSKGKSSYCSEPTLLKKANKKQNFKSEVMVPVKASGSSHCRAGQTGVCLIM
# Chain of HIPK1 (human) (Q86Z02 whole entry, looked up): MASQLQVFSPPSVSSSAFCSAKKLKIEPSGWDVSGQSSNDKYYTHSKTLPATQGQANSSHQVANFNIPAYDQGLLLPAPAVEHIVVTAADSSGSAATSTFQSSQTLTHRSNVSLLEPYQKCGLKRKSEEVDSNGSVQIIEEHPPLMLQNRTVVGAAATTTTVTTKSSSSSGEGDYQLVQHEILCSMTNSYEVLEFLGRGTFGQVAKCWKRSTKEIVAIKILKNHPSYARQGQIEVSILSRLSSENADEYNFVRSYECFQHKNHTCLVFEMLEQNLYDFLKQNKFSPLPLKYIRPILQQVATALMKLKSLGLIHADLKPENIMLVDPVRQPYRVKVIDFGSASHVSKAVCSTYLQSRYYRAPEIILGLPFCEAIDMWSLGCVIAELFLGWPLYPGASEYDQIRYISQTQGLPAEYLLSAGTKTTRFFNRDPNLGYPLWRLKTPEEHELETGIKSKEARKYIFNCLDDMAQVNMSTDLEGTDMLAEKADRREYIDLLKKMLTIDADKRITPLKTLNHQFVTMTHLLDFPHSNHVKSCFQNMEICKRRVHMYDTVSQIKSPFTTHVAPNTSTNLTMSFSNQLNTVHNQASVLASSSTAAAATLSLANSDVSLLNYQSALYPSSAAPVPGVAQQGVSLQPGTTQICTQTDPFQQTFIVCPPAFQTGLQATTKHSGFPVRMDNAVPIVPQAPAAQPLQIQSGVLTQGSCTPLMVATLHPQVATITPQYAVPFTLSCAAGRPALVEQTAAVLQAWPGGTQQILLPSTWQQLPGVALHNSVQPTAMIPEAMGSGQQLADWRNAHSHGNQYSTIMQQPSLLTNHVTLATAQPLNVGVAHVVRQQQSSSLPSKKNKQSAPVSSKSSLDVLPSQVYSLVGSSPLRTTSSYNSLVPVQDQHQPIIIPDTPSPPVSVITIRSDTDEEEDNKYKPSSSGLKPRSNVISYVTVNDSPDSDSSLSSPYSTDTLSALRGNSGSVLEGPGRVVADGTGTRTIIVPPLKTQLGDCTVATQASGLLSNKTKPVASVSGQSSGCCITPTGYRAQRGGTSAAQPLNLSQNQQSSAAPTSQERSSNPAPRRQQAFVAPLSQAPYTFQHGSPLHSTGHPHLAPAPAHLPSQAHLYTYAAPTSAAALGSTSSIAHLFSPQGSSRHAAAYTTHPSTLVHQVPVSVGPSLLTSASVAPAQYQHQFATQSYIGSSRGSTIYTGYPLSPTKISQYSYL
# Chain of DSTYK (human) (Q6XUX3 whole entry, looked up): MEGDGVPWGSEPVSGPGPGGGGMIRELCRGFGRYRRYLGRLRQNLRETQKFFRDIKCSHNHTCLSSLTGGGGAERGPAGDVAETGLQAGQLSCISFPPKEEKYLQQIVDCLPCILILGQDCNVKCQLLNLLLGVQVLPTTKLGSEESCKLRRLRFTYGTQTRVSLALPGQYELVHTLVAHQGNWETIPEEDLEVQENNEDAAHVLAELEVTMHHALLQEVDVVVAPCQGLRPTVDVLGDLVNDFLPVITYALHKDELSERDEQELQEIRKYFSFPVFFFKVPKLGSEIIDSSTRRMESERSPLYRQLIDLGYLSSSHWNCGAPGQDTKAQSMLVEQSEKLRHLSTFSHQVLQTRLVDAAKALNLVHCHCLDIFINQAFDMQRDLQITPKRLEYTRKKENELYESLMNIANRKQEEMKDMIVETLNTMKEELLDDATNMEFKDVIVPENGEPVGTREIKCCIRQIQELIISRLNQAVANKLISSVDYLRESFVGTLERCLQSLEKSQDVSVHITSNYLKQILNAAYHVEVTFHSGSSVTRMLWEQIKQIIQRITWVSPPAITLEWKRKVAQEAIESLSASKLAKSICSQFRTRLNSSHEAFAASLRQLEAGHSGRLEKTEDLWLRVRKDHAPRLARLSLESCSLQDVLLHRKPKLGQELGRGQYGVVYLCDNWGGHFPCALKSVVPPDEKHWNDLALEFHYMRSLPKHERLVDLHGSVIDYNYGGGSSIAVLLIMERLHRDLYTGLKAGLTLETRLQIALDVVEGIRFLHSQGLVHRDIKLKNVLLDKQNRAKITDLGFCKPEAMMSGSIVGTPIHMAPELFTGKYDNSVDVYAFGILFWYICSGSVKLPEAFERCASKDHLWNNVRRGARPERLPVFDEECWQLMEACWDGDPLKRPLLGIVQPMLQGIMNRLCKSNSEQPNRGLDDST
# Chain of STK11 (human) (Q15831 whole entry, looked up): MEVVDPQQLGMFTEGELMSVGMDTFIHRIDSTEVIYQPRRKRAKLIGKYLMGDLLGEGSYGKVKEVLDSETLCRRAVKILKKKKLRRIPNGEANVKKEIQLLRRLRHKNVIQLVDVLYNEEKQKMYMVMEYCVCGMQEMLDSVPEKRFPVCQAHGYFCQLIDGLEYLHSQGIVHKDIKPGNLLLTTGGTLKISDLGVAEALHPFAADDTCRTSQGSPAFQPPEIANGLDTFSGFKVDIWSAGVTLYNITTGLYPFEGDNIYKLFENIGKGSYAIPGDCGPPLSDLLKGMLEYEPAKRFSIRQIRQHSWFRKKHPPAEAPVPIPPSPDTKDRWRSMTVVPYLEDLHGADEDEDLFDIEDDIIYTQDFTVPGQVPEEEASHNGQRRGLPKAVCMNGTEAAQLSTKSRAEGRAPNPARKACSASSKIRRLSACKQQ
# Chain of MST4 (human) (Q9P289 whole entry, looked up): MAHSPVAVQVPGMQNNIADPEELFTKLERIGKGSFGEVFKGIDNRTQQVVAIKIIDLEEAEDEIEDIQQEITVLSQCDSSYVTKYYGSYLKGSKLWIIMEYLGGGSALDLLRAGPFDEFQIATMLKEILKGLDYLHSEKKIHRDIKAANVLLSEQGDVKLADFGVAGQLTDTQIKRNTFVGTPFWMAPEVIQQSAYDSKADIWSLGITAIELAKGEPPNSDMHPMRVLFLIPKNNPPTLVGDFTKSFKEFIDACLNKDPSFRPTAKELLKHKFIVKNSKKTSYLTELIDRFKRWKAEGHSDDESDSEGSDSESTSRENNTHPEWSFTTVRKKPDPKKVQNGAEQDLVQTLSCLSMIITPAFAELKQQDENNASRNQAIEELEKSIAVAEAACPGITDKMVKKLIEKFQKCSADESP
smiles,measurement,setting,value
c1ccc(-c2cnc(Nc3ccc(OCCN4CCCC4)cc3)s2)cc1,residual activity,ROS1 (human),96.9%
same,residual activity,HIPK1 (human),91.3%
same,residual activity,PAK6 (human),101%
same,residual activity,YES1 (human),42.1%
same,residual activity,BRSK2 (human),79.3%
same,residual activity,EPHB4 (human),91.9%
same,residual activity,FGFR4 (human),95.6%
same,residual activity,PLK1 (human),101%
same,residual activity,ERBB4 (human),101%
same,residual activity,DDR2 (human),86.6%
same,residual activity,MAP3K8 (human),97.2%
same,residual activity,PHKG2 (human),97%
same,residual activity,PRKCE (human),90.5%
same,residual activity,CDK6 CCND1 (human),40.3%
same,residual activity,DSTYK (human),90.8%
same,residual activity,PNCK (human),99.8%
same,residual activity,NTRK3 (human),22.6%
same,residual activity,PAK3 (human),99.1%
same,residual activity,MAPK1 (human),83.4%
same,residual activity,MLTK (human),25.9%
same,residual activity,MERTK (human),87.8%
same,residual activity,NLK (human),89.7%
same,residual activity,CSNK1D (human),95.8%
same,residual activity,CSNK1E (human),81.2%
same,residual activity,STK11 (human),103%
same,residual activity,FGFR3 (human),98.2%
same,residual activity,MST4 (human),101%
same,residual activity,PRKCD (human),91.3%
same,residual activity,HIPK3 (human),64.8%
same,residual activity,SYK (human),89.2%
same,residual activity,EPHA1 (human),85.3%
same,residual activity,CAMK1G (human),101%
same,residual activity,CSNK1G1 (human),94.7%
same,residual activity,NEK3 (human),92.9%
same,residual activity,JAK2 JH1 JH2 (human),92.7%
same,residual activity,KIT (human),20.3%
same,residual activity,TAOK2 (human),70.7%
same,residual activity,CSNK2A1 (human),90.7%
same,residual activity,NEK11 (human),95%
same,residual activity,DYRK2 (human),95%
same,residual activity,CLK3 (human),94.3%
O=c1cc(N2CCOCC2)oc2c(-c3ccccc3)cccc12,residual activity,ROS1 (human),98.4%
same,residual activity,HIPK1 (human),111%
same,residual activity,PAK6 (human),115%
same,residual activity,YES1 (human),101%
same,residual activity,BRSK2 (human),96.2%
same,residual activity,EPHB4 (human),99.5%
same,residual activity,FGFR4 (human),104%
same,residual activity,PLK1 (human),67.1%
same,residual activity,ERBB4 (human),102%
same,residual activity,MAPKAPK2 (human),103%
same,residual activity,DDR2 (human),91.3%
same,residual activity,MAP3K8 (human),98.2%
same,residual activity,PHKG2 (human),97.2%
same,residual activity,PRKCE (human),102%
same,residual activity,CDK6 CCND1 (human),97.9%
same,residual activity,DSTYK (human),113%
same,residual activity,PNCK (human),98.4%
same,residual activity,NTRK3 (human),95.9%
same,residual activity,PAK3 (human),104%
same,residual activity,MAPK1 (human),70.3%
same,residual activity,MLTK (human),94.2%
same,residual activity,MERTK (human),95.2%
same,residual activity,NLK (human),99.8%
same,residual activity,CSNK1D (human),100%
same,residual activity,CSNK1E (human),103%
same,residual activity,STK11 (human),101%
same,residual activity,FGFR3 (human),95.9%
same,residual activity,MST4 (human),97.2%
same,residual activity,PRKCD (human),96%
same,residual activity,HIPK3 (human),120%
same,residual activity,SYK (human),99.7%
same,residual activity,EPHA1 (human),101%
same,residual activity,CAMK1G (human),93.8%
same,residual activity,CSNK1G1 (human),104%
same,residual activity,NEK3 (human),102%
same,residual activity,JAK2 JH1 JH2 (human),95.1%
same,residual activity,KIT (human),92.9%
same,residual activity,CSNK2A1 (human),64.8%
same,residual activity,NEK11 (human),102%
same,residual activity,DYRK2 (human),90.8%
same,residual activity,CLK3 (human),107%
COc1cc2c(N3CCN(C(=O)Nc4ccc(OC(C)C)cc4)CC3)ncnc2cc1OCCCN1CCCCC1,residual activity,ROS1 (human),90.1%
same,residual activity,HIPK1 (human),98.9%
same,residual activity,PAK6 (human),101%
same,residual activity,YES1 (human),86.6%
same,residual activity,BRSK2 (human),98.6%
same,residual activity,EPHB4 (human),95%
same,residual activity,FGFR4 (human),87.8%
same,residual activity,PLK1 (human),101%
same,residual activity,ERBB4 (human),97.3%
same,residual activity,MAPKAPK2 (human),100%
same,residual activity,DDR2 (human),102%
same,residual activity,MAP3K8 (human),93.2%
same,residual activity,PHKG2 (human),98.9%
same,residual activity,PRKCE (human),104%
same,residual activity,CDK6 CCND1 (human),94.6%
same,residual activity,DSTYK (human),92.7%
same,residual activity,PNCK (human),97.7%
same,residual activity,PAK3 (human),105%
same,residual activity,MAPK1 (human),87%
same,residual activity,MLTK (human),99.7%
same,residual activity,MERTK (human),106%
same,residual activity,NLK (human),105%
same,residual activity,CSNK1D (human),90.9%
same,residual activity,CSNK1E (human),99.1%
same,residual activity,STK11 (human),104%
same,residual activity,FGFR3 (human),93.2%
same,residual activity,MST4 (human),101%
same,residual activity,PRKCD (human),101%
same,residual activity,HIPK3 (human),101%
same,residual activity,SYK (human),102%
same,residual activity,EPHA1 (human),96.1%
same,residual activity,CAMK1G (human),94.6%
same,residual activity,CSNK1G1 (human),98%
same,residual activity,NEK3 (human),103%
same,residual activity,JAK2 JH1 JH2 (human),101%
same,residual activity,KIT (human),45.1%
same,residual activity,TAOK2 (human),102%
same,residual activity,CSNK2A1 (human),102%
same,residual activity,NEK11 (human),92.5%
same,residual activity,DYRK2 (human),107%
same,residual activity,CLK3 (human),93.4%
N#Cc1c(NC(=O)c2cccc3ccccc23)sc2c1CCCC2,residual activity,ROS1 (human),96.8%
same,residual activity,HIPK1 (human),107%
same,residual activity,PAK6 (human),101%
same,residual activity,YES1 (human),104%
same,residual activity,BRSK2 (human),100%
same,residual activity,EPHB4 (human),99.5%
same,residual activity,FGFR4 (human),109%
same,residual activity,PLK1 (human),96.4%
same,residual activity,ERBB4 (human),99.8%
same,residual activity,MAPKAPK2 (human),103%
same,residual activity,DDR2 (human),95.8%
same,residual activity,MAP3K8 (human),99.8%
same,residual activity,PHKG2 (human),101%
same,residual activity,PRKCE (human),99.1%
same,residual activity,CDK6 CCND1 (human),94%
same,residual activity,DSTYK (human),100%
same,residual activity,PNCK (human),104%
same,residual activity,PAK3 (human),105%
same,residual activity,MAPK1 (human),87.5%
same,residual activity,MLTK (human),93.2%
same,residual activity,MERTK (human),97.9%
same,residual activity,NLK (human),99.4%
same,residual activity,CSNK1D (human),106%
same,residual activity,CSNK1E (human),102%
same,residual activity,STK11 (human),96.1%
same,residual activity,FGFR3 (human),101%
same,residual activity,MST4 (human),102%
same,residual activity,PRKCD (human),94.1%
same,residual activity,HIPK3 (human),116%
same,residual activity,SYK (human),97.6%
same,residual activity,EPHA1 (human),103%
same,residual activity,CAMK1G (human),97.7%
same,residual activity,CSNK1G1 (human),109%
same,residual activity,NEK3 (human),93.2%
same,residual activity,JAK2 JH1 JH2 (human),103%
same,residual activity,KIT (human),84.2%
same,residual activity,TAOK2 (human),99.8%
same,residual activity,CSNK2A1 (human),101%
same,residual activity,NEK11 (human),105%
same,residual activity,DYRK2 (human),119%
same,residual activity,CLK3 (human),99.3%
O=S(=O)(NCCNC/C=C/c1ccc(Br)cc1)c1cccc2cnccc12,residual activity,ROS1 (human),99.6%
same,residual activity,HIPK1 (human),91.4%
same,residual activity,PAK6 (human),85.5%
same,residual activity,YES1 (human),91.6%
same,residual activity,BRSK2 (human),92.4%
same,residual activity,EPHB4 (human),108%
same,residual activity,FGFR4 (human),85.3%
same,residual activity,PLK1 (human),98.7%
same,residual activity,ERBB4 (human),94.2%
same,residual activity,DDR2 (human),93.8%
same,residual activity,MAP3K8 (human),99.4%
same,residual activity,PHKG2 (human),88.8%
same,residual activity,PRKCE (human),86.4%
same,residual activity,CDK6 CCND1 (human),77.9%
same,residual activity,DSTYK (human),91.6%
same,residual activity,PNCK (human),100%
same,residual activity,NTRK3 (human),79.6%
same,residual activity,PAK3 (human),103%
same,residual activity,MAPK1 (human),108%
same,residual activity,MLTK (human),105%
same,residual activity,MERTK (human),79.8%
same,residual activity,NLK (human),94.9%
same,residual activity,CSNK1E (human),107%
same,residual activity,STK11 (human),102%
same,residual activity,FGFR3 (human),91.3%
same,residual activity,MST4 (human),94.8%
same,residual activity,PRKCD (human),38.1%
same,residual activity,HIPK3 (human),81.7%
same,residual activity,SYK (human),77.7%
same,residual activity,EPHA1 (human),83.7%
same,residual activity,CAMK1G (human),99.1%
same,residual activity,CSNK1G1 (human),97.2%
same,residual activity,NEK3 (human),94.4%
same,residual activity,JAK2 JH1 JH2 (human),109%
same,residual activity,KIT (human),101%
same,residual activity,TAOK2 (human),90.7%
same,residual activity,CSNK2A1 (human),97.8%
same,residual activity,NEK11 (human),92.7%
same,residual activity,DYRK2 (human),95.2%
same,residual activity,CLK3 (human),87.6%
